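All cell lines were grown in 96-well plates and treated with compound for 48 hours. GI50: concentration for 50% inhibition of growth.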 Calls of active or inactive are those of the source. Cut-off read from the data, not from the text of the source: active = GI50 up to about 1.1 µM and inactive = higher. Non-standard residues stand in square brackets, D forms with d. Residues, ends and D or L forms follow the SMILES beside them. *: point of attachment. NMeF = CN[CH](Cc1ccccc1)C(=O)O; NMeV = CN[CH](C(=O)O)C(C)C; Boc = CC(C)(C)OC(=O)* A value given as a limit tells only on which side of the number the result lay.

Common to all, as to experiment: NCI tumour cell line growth inhibition, 48 h
The test system of test [1] is NCI-H460.
The test system of test [2] is DMS-273.
Test [3] relates to COLO 205.
Test [4] has as its system TK-10.
In test [5] the test system is OVCAR-4.
The subject of test [6] is U-251.
Test [7] deals with SF-268.
The test system of test [8] is OVCAR-3.
Test [9] deals with OVCAR-8.
Test [10] relates to SK-MEL-5.
Test [11] relates to M19-MEL.
For test [12], the system named is UACC-257.
In test [13] the test system is HCT-15.
Test [14] has as its system SW-620.
In test [15] the test system is ACHN.
Test [16] concerns CCRF-CEM.
The subject of test [17] is IGROV-1.

Take `CN(C)c1ccc(/C=C/C=C\c2cc(/C=C/C=C/c3ccc(N(C)C)cc3)[s+]c3ccccc23)cc1.[O-][Cl+3]([O-])([O-])[O-]`: the GI50 in test [1] was > 100 µM (inactive); in [2], 46.1 µM (inactive); in test [3], 29.3 µM (inactive); in test [4], > 100 µM (inactive); in test [5], 10 µM (inactive); in test [6], 10 µM (inactive). The GI50 in [7] is > 100 µM (inactive); in [8], 31.8 µM (inactive); in test [9] it was 57.9 µM (inactive); in test [10], 43.8 µM (inactive); in test [11], 15.5 µM (inactive); in test [12], 59.4 µM (inactive). Moreover, the GI50 in test [13] was 80.7 µM; in test [14] it was 63.4 µM (inactive).

Turning to `CC(=O)OC1COC(N2C(=O)C(=O)c3cc(Br)ccc32)C(OC(C)=O)C1OC(C)=O` (stereo not drawn), the GI50 in [1], in test [15], in test [2], in [3], in [4] and in test [5] was > 100 µM (inactive) in each case. For the same molecule, the GI50 in [6] was > 100 µM (inactive); in [7], > 100 µM (inactive); in test [16] it was 71.3 µM (inactive); in [8] it was > 100 µM (inactive); in test [9], > 100 µM (inactive); in test [10], > 100 µM (inactive). Further, the GI50 in test [11] was 52.1 µM (inactive); in test [12], > 100 µM (inactive); in test [13], more than 100 µM; in [14], > 100 µM (inactive); in [17] it was > 100 µM (inactive).

Turning to `O=C(CC(=O)N1N=C(c2ccccc2)C(/N=N/c2ccc(Cl)cc2)C1=O)Nc1ccccc1Cl` (stereo not drawn), the GI50 is 42.1 µM (inactive) in [1]; 15.6 µM (inactive) in [15]; 32.2 µM (inactive) in [2]; > 100 µM (inactive) in [3]; 16.6 µM (inactive) in test [4]; 16 µM (inactive) in [5]. Also, the GI50 in [6] is 24.5 µM (inactive); in test [7], 22.5 µM (inactive); in [8], 24.3 µM (inactive); in test [10] it was 18.1 µM (inactive); in test [11], 51.3 µM (inactive); in test [13], 51.2 µM. The results for the GI50 in [14] and in test [17] were 40.7 µM (inactive) and 36.4 µM (inactive), respectively.

For the molecule `COc1cc2c3c(c1OC)C1(C=CC(=O)C=C1)CC3N(C(=O)OC(C)(C)C(Cl)(Cl)Cl)CC2` (stereo not drawn), the GI50 in test [1] was 14.5 µM (inactive); in test [2], 9.38 µM (inactive); in test [3], 12.4 µM (inactive); in test [4] it was 43.2 µM (inactive); in [5], 12.5 µM (inactive); in test [6], 10.5 µM (inactive). The GI50 in [7] is 13.1 µM (inactive); in test [16], 7.73 µM (inactive); in test [8] it was 7.66 µM (inactive); in test [9] it was 8.85 µM (inactive); in test [10], 6.87 µM (inactive); in test [11], 10.8 µM (inactive). In addition, the GI50 in test [12] is 10.4 µM (inactive); in test [13] it was 7.52 µM; in test [14], 18.3 µM (inactive); in test [17] it was 16.6 µM (inactive).

Regarding `CCC1CCc2c(c(=O)oc3c2cc(OC)c2cccc(OC)c23)C1` (stereo not drawn), the GI50 in [1] was 51.1 µM (inactive); in test [15], 87.7 µM (inactive); in test [2] it was 42.6 µM (inactive); in test [3] it was > 100 µM (inactive); in test [4], > 100 µM (inactive); in test [5] it was 76 µM (inactive). For the same molecule, the GI50 in test [6] is 74.3 µM (inactive); in test [7], 90.2 µM (inactive); in test [16], 28.3 µM (inactive); in [9], 50.1 µM (inactive); in test [10], 34.8 µM (inactive); in test [11] it was 55.8 µM (inactive). In addition, the GI50 in test [12] is 67.1 µM (inactive); in test [13] it was more than 100 µM; in test [17], > 100 µM (inactive).

In the case of `COc1ccc2nc3cc(Cl)ccc3c(Sc3ccc(NC(C)=O)cc3)c2c1`, the GI50 in [1] was > 26.3 µM (inactive); in [15], 4.86 µM (inactive); in [2] it was 8.09 µM (inactive); in test [3], 14.8 µM (inactive); in [4], > 36.2 µM (inactive); in test [5], > 24.4 µM (inactive). Further, the GI50 is 9.18 µM (inactive) in test [16]; 8.28 µM (inactive) in test [9]; > 29.3 µM (inactive) in test [10]; 10.9 µM (inactive) in test [11]; 17.4 µM (inactive) in test [12]; 14.2 µM (inactive) in [14]. Besides, the GI50 in [17] is > 32.4 µM (inactive).

`[N-]=[N+]=Nc1cc(=O)oc2ccccc12`: the GI50 in test [1], in test [15], in [2], in [3], in test [4] and in [5] was > 100 µM (inactive) each time. The GI50 in [6], in [7], in [16], in test [9], in test [10] and in [11] was > 100 µM (inactive) throughout. The GI50 is > 100 µM (inactive) in test [12], more than 100 µM in [13], > 100 µM (inactive) in [14] and > 100 µM (inactive) in test [17].

In the case of `CC12CCC3=C(CSC4=C3CSc3ccccc34)C1=CCCC2=O` (stereo not drawn), the GI50 in test [1] was 45.2 µM (inactive); in [15] it was 69.2 µM (inactive); in test [2], 82.8 µM (inactive); in [3] it was 20.3 µM (inactive); in test [4] it was 38 µM (inactive); in test [5], 14.8 µM (inactive). Also, the GI50 in test [6] is 42.8 µM (inactive); in [7] it was > 100 µM (inactive); in test [16], 69.8 µM (inactive); in [8], 13.5 µM (inactive); in test [9] it was 78.5 µM (inactive); in test [10] it was 17.4 µM (inactive). Moreover, the GI50 in test [11] is 86.9 µM (inactive); in [13], 29.8 µM; in test [14], > 100 µM (inactive).

For `O=C(O)c1ccc(NC(=O)C2C(=O)C(=O)N(c3ccc(C(=O)O)cc3)C2=O)cc1` (stereo not drawn), the GI50 in [1], in test [15], in test [2], in test [3], in [4] and in test [5] was > 100 µM (inactive) each time. Also, the GI50 in test [6], in [7], in [16], in test [8], in test [9] and in test [11] was > 100 µM (inactive) each time. Besides, the GI50 is > 100 µM (inactive) in test [12], more than 100 µM in test [13], > 100 µM (inactive) in test [14] and > 100 µM (inactive) in [17].

For `O=C(O)C(CS)NCc1c2ccccc2nc2ccccc12` (stereo not drawn), the GI50 in [1] was 42.5 µM (inactive); in test [15], 42.3 µM (inactive); in test [2], 27 µM (inactive); in [3], > 100 µM (inactive); in test [4] it was 78.2 µM (inactive); in test [5], 12.9 µM (inactive). Moreover, the GI50 was 92 µM (inactive) in test [6]; 40.7 µM (inactive) in [7]; 19 µM (inactive) in test [16]; 38.9 µM (inactive) in [8]; 32.6 µM (inactive) in [9]; 34.9 µM (inactive) in test [11]. In addition, the GI50 is 57.8 µM (inactive) in [12], 31.6 µM in test [13], 37.4 µM (inactive) in test [14] and 27 µM (inactive) in [17].

Regarding `COC(=O)C1CCc2c(OC)ccc(OC)c2C1=O` (stereo not drawn), the GI50 in [1], in test [15], in [2], in test [3], in [4] and in [5] was > 100 µM (inactive) in each case. Besides, the GI50 in test [6], in test [16], in [8], in test [9], in [10] and in [11] was > 100 µM (inactive) each time. For the same molecule, the GI50 in [12], in test [14] and in [17] was > 100 µM (inactive) in each case.

For the molecule `COc1ccc(C2C(Cl)C(=O)N2NC(=O)c2ccccc2O)cc1OC` (stereo not drawn), the GI50 in test [1] is 49.5 µM (inactive); in [15], > 100 µM (inactive); in test [2] it was > 100 µM (inactive); in [4], > 100 µM (inactive); in [5] it was 75.9 µM (inactive); in [6], 92.3 µM (inactive). Besides, the GI50 in [7] is 54.2 µM (inactive); in [16], 31.6 µM (inactive); in test [8] it was 75.9 µM (inactive); in test [9], 93.1 µM (inactive); in [10], 60 µM (inactive); in test [11], > 100 µM (inactive). The results for the GI50 in test [12], in [13] and in test [17] were 93.8 µM (inactive), 68.9 µM and > 100 µM (inactive), respectively.

`CC(C)C(NC(=O)OC(C)(C)C)C(=O)N(C)C(Cc1ccccc1)C(=O)N(C)C(C(=O)N(C)C(C(=O)O)C(C)C)C(C)C` (stereo not drawn) (Boc-V[NMeF][NMeV][NMeV]-OH; configuration not given here): the GI50 in test [1], in [15], in test [2], in test [3], in test [4] and in test [6] was > 100 µM (inactive) throughout. Moreover, the GI50 in test [7], in [16], in test [8], in test [9], in test [10] and in [11] was > 100 µM (inactive) throughout. The GI50 was > 100 µM (inactive) in [12], more than 100 µM in test [13], > 100 µM (inactive) in test [14] and > 100 µM (inactive) in test [17].

The values above are taken from ChEMBL document CHEMBL1201862, “PubChem BioAssay data set” (2004).
